What was measured:
HepG2 cells = assay: Cellular uptake of MPP+ and 4'I-MPP+ (HPLC-UV / fluorescence); type: cell-based, human; conditions: 100 μM toxin, 40 min
Method: Cells were seeded into 12-well plates at 0.25 x 10^6 cells/well and grown 2–3 days to about 70–80% confluency. The media was removed and a solution containing 100 μM MPP^+ or 4'I-MPP^+ in warm KRB-HEPES (or without Ca^2+ and with 1.4 mM EGTA) was added to each well and incubated at 37 °C for the desired period of time (see Figure legends for further details). After the incubations, the media were removed and cells were washed with ice-cold KRB-HEPES. Washed cells were suspended in 1.0 mL of ice-cold KRB-HEPES and 50 μL aliquots were withdrawn for protein determination. The remaining cell suspensions were centrifuged at 5000 x g at 4 °C for 5 min and the cell pellets were treated with 75 μL of 0.1 M HClO4. The coagulated proteins were pelleted by centrifugation at 13,200 x g at 4 °C for 8 min and the MPP^+ or 4'I-MPP^+ contents of the supernatants were determined by C18-reversed-phase HPLC-UV (HPLC-UV) as previously described using standard curves constructed from authentic standards. The standard curves for HPLC-UV quantifications were constructed using authentic samples of MPP^+ and 4'I-MPP^+ under the same HPLC-UV separation conditions (S1 Fig).
To quantify 4'I-MPP^+ uptake by fluorescence, MN9D or HepG2 cells grown in glass bottomed plates, washed, and reconstituted with KRB-HEPES (1.0 mL), pH 7.4, and mounted on the stage of a Nikon ECLIPSE Ti-S inverted fluorescence microscope. […]

[1] = system: rat brain mitochondrial complex-I (NADH: ubiquinone oxidoreductase); assay: Ubiquinone dependent NADH oxidation (complex-I inhibition); type: biochemical; conditions: 200 μM
Method: Isolated rat brain mitochondria were lysed by freeze-thawing in hypotonic media containing 25 mM K3PO4 and 5 mM MgCl2, pH 7.2 [22]. The complex-I (i.e. NADH: ubiquinone oxidoreductase) activity of mitochondrial membrane fragments were determined according to the procedure of Birch-Machin and Turnbull. Briefly, mitochondrial membranes (50 μg protein) were incubated with 130 μM NADH (final concentration) and Antimycine A (2 μg/mL) in a 1.0 mL assay solution containing 25 mM K3PO4, 5 mM MgCl2, 2 mM KCN, 2.5 mg/mL bovine serum albumin, pH 7.2, for 2 min at 37 °C with or without rotenone, MPP^+ or 4'I-MPP^+ (for further details see the corresponding figure legends). The complex-I mediated ubiquinone dependent NADH oxidation was initiated by adding ubiquinone-1 to a final concentration of 65 μM and the initial rates of the reactions were monitored by following the decrease in absorbance at 340 nm with respect to 425 nm reference wavelength for 5 min.

MN9D cells = assay: Intracellular ROS (DCFH-DA); type: cell-based, mouse; conditions: 100 μM, 1 h at 37 °C
Method: Cells grown in 12-well plates were incubated with 10 μM DCFH-DA in KRB-HEPES for 1 h. […] After the incubations, cells were washed, harvested, solubilized with 0.1 M Tris buffer (pH 7.5) containing 1% Triton X-100, and cell debris were removed by centrifugation at 13,200 x g for 8 min at 4 °C. The content of ROS-oxidized DCFH product, 2',7'-dichlorofluorescein (DCF) in the supernatants were quantified by fluorescence (Ex/Em 488/524 nm). The data were normalized to the protein contents of individual samples. ROS productions in DCFH-DA (50 μM) loaded 250 μM 4'I-MPP^+ treated (4 h) live MN9D cells were visualized by confocal fluorescence microscopy at Ex/Em 488/524 nm using a Leica TCS SP5II microscope.

[2] = Relative HPLC elution times and hydrophobicities; type: physicochemical

C[n+]1ccc(-c2ccc(I)cc2)cc1 [4'I-MPP^+, 1-methyl-4-(4'-iodophenyl)pyridinium]
cellular uptake in 40 min (HepG2 cells): 1.4 nmoles/mg of protein
inhibition of the complex-I activity [1]: 46%
effect on ROS production (MN9D cells): increase ROS production
relative elution time (hydrophobicity) ([2]; Buffer:CH3CN 70:30): 11.76
relative elution time (hydrophobicity) ([2]; Buffer:CH3CN:MeOH 60:30:10): 8.88
relative elution time (hydrophobicity) ([2]; Buffer:CH3CN:MeOH 65:25:10): 12.56

Reference: paper PMC6107127, “Characteristics of the mitochondrial and cellular uptake of MPP^+, as probed by the fluorescent mimic, 4'I-MPP^+” (PLoS ONE, 2018)
